In US20160262390A1, “FIELD APPLICATION OF SUGARS TO INCREASE CROP YIELD” (Minn-Dak Farmers Cooperative, priority 2015, published 2016):

Tested on: sugarbeets
Experiment: Sugarbeet field trial, Wilkin County, Minnesota (ACH 228 seed)
Assay type: in vivo
Method: To test the efficacy of using a sugar based fertilizer composition with sugarbeets, a field trial using Crystal® brand ACH 228 sugarbeet seed was conducted in Wilkin County, Minnesota. A total of eleven (11) treatments were conducted. Each treatment was replicated four times arranged in a Randomized Complete Block (RCB) Design in the same field. Each replication consisted of a plot having a width of six (6) rows with twenty two (22) inch row spacing having a row length of twenty five (25) feet. To reduce/eliminate any treatment impacts between adjacent plots, only the four (4) interior rows of each plot were treated and evaluated. With the exception of the treatment program applied to the individual plots, which will be discussed below, conventional commercial growing practices were otherwise followed during the field trials. The individual plots experienced the same growing conditions throughout the season.
The treatment regimen for the sugarbeets included one (1) untreated treatment in which no sugar was applied was used as the control element. One (1) treatment included Sun Energy Foliar Fertilizer (SE) available from Micro Nutrients Online. […] treatments were conducted using GS. SE is available in liquid form and was applied by spraying while GS was supplied in a conventional solid form and applied via broadcast spreading. SE is for foliar application and was applied according to the labeling instructions on post-emergent (Post) sugarbeet plants at the both the 4-Leaf and 8-Leaf stages. GS was applied at a variety of times, both pre-planting (Pre) and on post-emergent sugarbeet plants (Post) at either or both of the 4-Leaf and 8-Leaf stages. When applied during pre-planting (Pre), the GS was spread directly on the soil before spring tillage, lightly worked into the ground and followed by planting of the sugarbeet seed into the treated ground. A summary of the plot treatments are contained in Table 1 below:
Following a conventional growing season, the middle four rows of each plot were harvested and data collected for overall yield (tons of sugarbeets/Acre), sugar per ton (pounds of recoverable sugar/ton of sugarbeets) and sugar per Acre (pounds of recoverable sugar/Acre). Fisher's Exact LSD was the statistical test of choice for mean separation for the individual plots of each treatment. A summary of the sugarbeet harvest data is contained in Table 2 below: […]

[1] = Replication 3: 50 pounds/Acre Pre
[2] = Replication 4: 100 pounds/Acre Pre
[3] = Replication 5: 3 pounds/Acre 4-Leaf Post
[4] = Replication 6: 3 pounds/Acre 8-Leaf Post
[5] = Replication 7: 5 pounds/Acre 4-Leaf Post
[6] = Replication 8: 3 pounds/Acre 4-Leaf + 3 pounds/Acre 8-Leaf Post
[7] = Replication 9: 5 pounds/Acre 4-Leaf + 5 pounds/Acre 8-Leaf Post
[8] = Replication 10: 50 pounds/Acre Pre + 3 pounds/Acre 8-Leaf
[9] = Replication 11: 100 pounds/Acre Pre + 5 pounds/Acre 8-Leaf

OC[C@H]1O[C@@](CO)(O[C@H]2O[C@H](CO)[C@@H](O)[C@H](O)[C@H]2O)[C@@H](O)[C@@H]1O [GS, sucrose]
Pounds of Recoverable Sugar/Acre [1]: 7598.95 pounds/Acre | Pounds of Recoverable Sugar/Ton of Sugarbeets [1]: 282.03 pounds/ton | Tons of Sugarbeets/Acre [1]: 26.94 tons/Acre | Yield Increase (recoverable sugar/Acre vs check) [1]: 9.32% | Pounds of Recoverable Sugar/Acre [2]: 8051.44 pounds/Acre | Pounds of Recoverable Sugar/Ton of Sugarbeets [2]: 278.54 pounds/ton | Tons of Sugarbeets/Acre [2]: 28.91 tons/Acre | Yield Increase (recoverable sugar/Acre vs check) [2]: 15.83% | Pounds of Recoverable Sugar/Acre [3]: 7021.89 pounds/Acre | Pounds of Recoverable Sugar/Ton of Sugarbeets [3]: 276.83 pounds/ton | Tons of Sugarbeets/Acre [3]: 25.41 tons/Acre | Yield Increase (recoverable sugar/Acre vs check) [3]: 1.02% | Pounds of Recoverable Sugar/Acre [4]: 7279.72 pounds/Acre | Pounds of Recoverable Sugar/Ton of Sugarbeets [4]: 284.34 pounds/ton | Tons of Sugarbeets/Acre [4]: 25.64 tons/Acre | Yield Increase (recoverable sugar/Acre vs check) [4]: 4.73% | Pounds of Recoverable Sugar/Acre [5]: 6712.87 pounds/Acre | Pounds of Recoverable Sugar/Ton of Sugarbeets [5]: 274.69 pounds/ton | Tons of Sugarbeets/Acre [5]: 24.43 tons/Acre | Yield Increase (recoverable sugar/Acre vs check) [5]: −3.43% | Pounds of Recoverable Sugar/Acre [6]: 6125.93 pounds/Acre | Pounds of Recoverable Sugar/Ton of Sugarbeets [6]: 270.05 pounds/ton | Tons of Sugarbeets/Acre [6]: 22.81 tons/Acre | Yield Increase (recoverable sugar/Acre vs check) [6]: −11.87% | Pounds of Recoverable Sugar/Acre [7]: 6957.73 pounds/Acre | Pounds of Recoverable Sugar/Ton of Sugarbeets [7]: 289.83 pounds/ton | Tons of Sugarbeets/Acre [7]: 24.00 tons/Acre | Yield Increase (recoverable sugar/Acre vs check) [7]: 0.10% | Pounds of Recoverable Sugar/Acre [8]: 7250.53 pounds/Acre | Pounds of Recoverable Sugar/Ton of Sugarbeets [8]: 276.34 pounds/ton | Tons of Sugarbeets/Acre [8]: 26.24 tons/Acre | Yield Increase (recoverable sugar/Acre vs check) [8]: 4.31% | Pounds of Recoverable Sugar/Acre [9]: 7963.70 pounds/Acre | Pounds of Recoverable Sugar/Ton of Sugarbeets [9]: 274.29 pounds/ton | Tons of Sugarbeets/Acre [9]: 29.03 tons/Acre | Yield Increase (recoverable sugar/Acre vs check) [9]: 14.57% | yield increase in comparison to the untreated check (every pre-planting application of GS): ≥ 4% | yield increase as compared to the untreated check (largest pre-planting applications of GS): ≥ 14% | yield data (only post-emergent application of GS at 4-Leaf or 8-Leaf stage): inconclusive
